According to US11084829B2, “Ubiquitin-specific-processing protease 7 (USP7) modulators and uses thereof” (RAPT THERAPEUTICS, INC., priority 2018, dated 2021):

Molecular target: USP7 (Homo sapiens, UniProt Q93009)
Experiment: USP7 inhibitory potency (IC50)
Format: biochemical
Protocol: Activity for compounds described herein is provided in Table 2, wherein potency levels are provided as follows: (Potency: USP7 IC50: A<0.01 μM; B=0.01-0.1 μM; C=>0.1 μM.

Chain of USP7 (Q93009 whole entry): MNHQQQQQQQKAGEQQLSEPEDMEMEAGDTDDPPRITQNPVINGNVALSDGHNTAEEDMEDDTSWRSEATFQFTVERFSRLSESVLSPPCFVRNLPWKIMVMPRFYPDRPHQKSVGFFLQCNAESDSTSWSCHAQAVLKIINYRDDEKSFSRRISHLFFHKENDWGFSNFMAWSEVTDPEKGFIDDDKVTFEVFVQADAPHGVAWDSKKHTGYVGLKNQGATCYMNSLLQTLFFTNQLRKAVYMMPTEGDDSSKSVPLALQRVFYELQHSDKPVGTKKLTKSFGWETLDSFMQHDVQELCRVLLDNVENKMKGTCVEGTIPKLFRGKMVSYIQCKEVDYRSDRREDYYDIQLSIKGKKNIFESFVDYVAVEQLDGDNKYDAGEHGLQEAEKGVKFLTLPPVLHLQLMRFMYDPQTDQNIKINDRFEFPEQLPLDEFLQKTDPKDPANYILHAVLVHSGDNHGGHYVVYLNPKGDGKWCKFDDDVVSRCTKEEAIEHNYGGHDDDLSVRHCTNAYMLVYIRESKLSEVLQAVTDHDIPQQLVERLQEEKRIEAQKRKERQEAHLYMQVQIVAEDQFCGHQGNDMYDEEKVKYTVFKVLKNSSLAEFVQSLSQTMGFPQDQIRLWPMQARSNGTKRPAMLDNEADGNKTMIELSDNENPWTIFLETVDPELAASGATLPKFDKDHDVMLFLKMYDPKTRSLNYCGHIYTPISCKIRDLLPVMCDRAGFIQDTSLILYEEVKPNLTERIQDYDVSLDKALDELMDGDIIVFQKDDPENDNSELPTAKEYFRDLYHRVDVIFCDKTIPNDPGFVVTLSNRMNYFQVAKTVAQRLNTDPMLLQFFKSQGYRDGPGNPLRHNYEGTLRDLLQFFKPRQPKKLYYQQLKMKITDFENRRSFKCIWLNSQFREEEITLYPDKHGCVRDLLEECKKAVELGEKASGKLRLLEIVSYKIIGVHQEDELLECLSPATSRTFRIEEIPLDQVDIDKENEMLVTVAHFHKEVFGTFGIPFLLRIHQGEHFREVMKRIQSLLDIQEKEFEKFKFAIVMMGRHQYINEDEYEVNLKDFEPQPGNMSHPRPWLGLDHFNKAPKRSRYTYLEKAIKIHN

IC50 [nM] | Structure (SMILES)
> 100 | CC1(C)CNCC(Cc2c(Cl)cc(Cl)cc2-c2ncnc3cc(Cn4cnccc4=O)sc23)O1 (centres unmarked) [Example 251, 3-((4-(3,5-dichloro-2-((6,6-dimethylmorpholin-2-yl)methyl)phenyl)thieno[3,2-d]pyrimidin-6-yl)methyl)pyrimidin-4(3H)-one]
> 100 | Cc1cc(Cl)cc(-c2ccnc3cc(CN4C(=O)CCCC4C(F)(F)F)sc23)c1CC1CNCCO1 (centres unmarked) [Example 122, 1-((7-(5-chloro-3-methyl-2-(morpholin-2-ylmethyl)phenyl)thieno[3,2-b]pyridin-2-yl)methyl)-6-(trifluoromethyl)piperidin-2-one]
10 to 100 | Cc1cc(Cl)cc(-c2ncnc3cc(CN4C(=O)CC[C@@H]4CO)sc23)c1CC1CNCC(C)(C)O1 (stereo partly drawn) [Example 206, (5R)-1-((4-(5-chloro-2-((6,6-dimethylmorpholin-2-yl)methyl)-3-methylphenyl)thieno[3,2-d]pyrimidin-6-yl)methyl)-5-(hydroxymethyl)pyrrolidin-2-one]
> 100 | Cc1cc(Cl)cc(-c2ncnc3cc(CN4CCCCC4=O)sc23)c1CN1C[C@@H](C)NC[C@@H]1C [Example 82, 1-((4-(5-chloro-2-(((2S,5R)-2,5-dimethylpiperazin-1-yl)methyl)-3-methylphenyl)thieno[3,2-d]pyrimidin-6-yl)methyl)piperidin-2-one]
< 10 | Cc1cc(Cl)cc(-c2ncnc3cc(CN4C(=O)CN(C)C4=O)sc23)c1CN1C[C@@H](C)NC[C@@H]1C [Example 80, 3-((4-(5-chloro-2-(((2S,5R)-2,5-dimethylpiperazin-1-yl)methyl)-3-methylphenyl)thieno[3,2-d]pyrimidin-6-yl)methyl)-1-methylimidazolidine-2,4-dione]
< 10 | Cc1cc(Cl)cc(-c2ncnc3cc(CN4C(=O)C5CCC5C4=O)sc23)c1CC1CNCC(C)(C)O1 (centres unmarked) [Example 180, 3-((4-(5-chloro-2-((6,6-dimethylmorpholin-2-yl)methyl)-3-methylphenyl)thieno[3,2-d]pyrimidin-6-yl)methyl)-3-azabicyclo[3.2.0]heptane-2,4-dione]
< 10 | Cn1ccc(=O)n(Cc2cc3ncnc(-c4cc(Cl)cc(Cl)c4CC4CNCC(C)(C)O4)c3s2)c1=O (centres unmarked) [Example 252, 3-((4-(3,5-dichloro-2-((6,6-dimethylmorpholin-2-yl)methyl)phenyl)thieno[3,2-d]pyrimidin-6-yl)methyl)-1-methylpyrimidine-2,4(1H,3H)-dione]
< 10 | CN1CC(=O)N(Cc2cc3nccc(-c4cc(Cl)cc(Cl)c4CC4CNCCO4)c3s2)C1=O (centres unmarked) [Example 141, 3-((7-(3,5-dichloro-2-(morpholin-2-ylmethyl)phenyl)thieno[3,2-b]pyridin-2-yl)methyl)-1-methylimidazolidine-2,4-dione]
10 to 100 | Cc1cc(Cl)cc(-c2ccnc3c(F)c(CN4C(=O)CC[C@@H]4CF)sc23)c1C[C@@H]1CNCCO1 [Example 149, (R)-1-((7-(5-chloro-3-methyl-2-(((R)-morpholin-2-yl)methyl)phenyl)-3-fluorothieno[3,2-b]pyridin-2-yl)methyl)-5-(fluoromethyl)pyrrolidin-2-one]
< 10 | CC1(C)CNCC(Cc2c(Cl)cc(Cl)cc2-c2ccnc3cc(CN4C(=O)CCC4=O)sc23)O1 (centres unmarked) [Example 128, 1-((7-(3,5-dichloro-2-((6,6-dimethylmorpholin-2-yl)methyl)phenyl)thieno[3,2-b]pyridin-2-yl)methyl)pyrrolidine-2,5-dione]
< 10 | Cc1cc(Cl)cc(-c2ccnc3cc(Cn4c(=O)ccn(C5CCC5)c4=O)sc23)c1CC1CNCCO1 (centres unmarked) [Example 111, 3-((7-(5-chloro-3-methyl-2-(morpholin-2-ylmethyl)phenyl)thieno[3,2-b]pyridin-2-yl)methyl)-1-cyclobutylpyrimidine-2,4(1H,3H)-dione]
< 10 | Cc1cc(Cl)cc(-c2ncnc3cc(Cn4ccc(=O)[nH]c4=O)sc23)c1C[C@@H]1CNCC(C)(C)O1 [Example 267, (R)-1-((4-(5-chloro-2-((6,6-dimethylmorpholin-2-yl)methyl)-3-methylphenyl)thieno[3,2-d]pyrimidin-6-yl)methyl)pyrimidine-2,4(1H,3H)-dione]
10 to 100 | Cc1cc(Cl)cc(-c2ncnc3cc(CN4C(=O)C5CC5C4=O)sc23)c1C[C@H]1CNCCO1 (stereo partly drawn) [Example 181, 3-((4-(5-chloro-3-methyl-2-(((S)-morpholin-2-yl)methyl)phenyl)thieno[3,2-d]pyrimidin-6-yl)methyl)-3-azabicyclo[3.1.0]hexane-2,4-dione]
> 100 | Cc1cc(Cl)cc(-c2ncnc3cc(CN4CCOCC4=O)sc23)c1CC1CNCCO1 (centres unmarked) [Example 172, 4-((4-(5-chloro-3-methyl-2-(morpholin-2-ylmethyl)phenyl)thieno[3,2-d]pyrimidin-6-yl)methyl)morpholin-3-one]
> 100 | Cc1cc(Cl)cc(-c2ncnc3cc(Cn4cccc4C#N)sc23)c1C[C@@H]1CNCC(C)(C)O1 [Example 239, (R)-1-((4-(5-chloro-2-((6,6-dimethylmorpholin-2-yl)methyl)-3-methylphenyl)thieno[3,2-d]pyrimidin-6-yl)methyl)-1H-pyrrole-2-carbonitrile]
< 10 | Cc1cc(Cl)cc(-c2ncnc3cc(CN4C(=O)C5CCCN5C4=O)sc23)c1CC1CNCCO1 (centres unmarked) [Example 187, 2-((4-(5-chloro-3-methyl-2-(morpholin-2-ylmethyl)phenyl)thieno[3,2-d]pyrimidin-6-yl)methyl)tetrahydro-1H-pyrrolo[1,2-c]imidazole-1,3(2H)-dione]
< 10 | Cc1cc(Cl)cc(-c2ccnc3cc(CN4C(=O)C5CC5C4=O)sc23)c1CN1C[C@H](C)NC[C@@H]1C (stereo partly drawn) [Example 33, 3-((7-(5-chloro-2-(((2S,5 S)-2,5-dimethylpiperazin-1-yl)methyl)-3-methylphenyl)thieno[3,2-b]pyridin-2-yl)methyl)-3-azabicyclo[3.1.0]hexane-2,4-dione]
10 to 100 | Cc1cc(Cl)cc(-c2ncnc3cc(CN4C(=O)C5CC5C4=O)sc23)c1CC1OCCNC1(C)C (centres unmarked) [Example 159, 3-((4-(5-chloro-2-((3,3-dimethylmorpholin-2-yl)methyl)-3-methylphenyl)thieno[3,2-d]pyrimidin-6-yl)methyl)-3-azabicyclo[3.1.0]hexane-2,4-dione]
10 to 100 | Cc1cc(C#N)cc(-c2ncnc3cc(CN4C(=O)C5CC5C4=O)sc23)c1CN1CCNC[C@@H]1C (stereo partly drawn) [Example 60, 3-(6-((2,4-dioxo-3-azabicyclo[3.1.0]hexan-3-yl)methyl)thieno[3,2-d]pyrimidin-4-yl)-5-methyl-4-(((S)-2-methylpiperazin-1-yl)methyl)benzonitrile]
10 to 100 | Cc1cc(Cl)cc(-c2ncnc3cc(CN4C(=O)C5C(C4=O)C5(C)C)sc23)c1CC1(C)CNCCO1 (centres unmarked) [Example 157, 3-((4-(5-chloro-3-methyl-2-((2-methylmorpholin-2-yl)methyl)phenyl)thieno[3,2-d]pyrimidin-6-yl)methyl)-6,6-dimethyl-3-azabicyclo[3.1.0]hexane-2,4-dione]
10 to 100 | Cc1cc(C(F)(F)F)cc(-c2ncnc3cc(CN4C(=O)C5C(C4=O)C5(C)C)sc23)c1CN1CCNC[C@@H]1C (stereo partly drawn) [Example 59, 6,6-dimethyl-3-((4-(3-methyl-2-(((S)-2-methylpiperazin-1-yl)methyl)-5-(trifluoromethyl)phenyl)thieno[3,2-d]pyrimidin-6-yl)methyl)-3-azabicyclo[3.1.0]hexane-2,4-dione]
10 to 100 | Cc1cc(Cl)cc(-c2ccnc3cc(Cn4c(=O)ccn(CC(F)(F)F)c4=O)sc23)c1CN1CCCNCC1=O [Example 256, 3-((7-(5-chloro-3-methyl-2-((2-oxo-1,4-diazepan-1-yl)methyl)phenyl)thieno[3,2-b]pyridin-2-yl)methyl)-1-(2,2,2-trifluoroethyl)pyrimidine-2,4(1H,3H)-dione]
10 to 100 | Cc1cc(Cl)cc(-c2ncnc3cc(CN4C(=O)C5CC5C4=O)sc23)c1CC1CNC(C)(C)CO1 (centres unmarked) [Example 158, 3-((4-(5-chloro-2-((5,5-dimethylmorpholin-2-yl)methyl)-3-methylphenyl)thieno[3,2-d]pyrimidin-6-yl)methyl)-3-azabicyclo[3.1.0]hexane-2,4-dione]
10 to 100 | Cc1cc(Cl)cc(-c2ccnc3cc(CN4C(=O)CCC4C(F)(F)F)sc23)c1CC1CNCCO1 (centres unmarked) [Example 114, 1-((7-(5-chloro-3-methyl-2-(morpholin-2-ylmethyl)phenyl)thieno[3,2-b]pyridin-2-yl)methyl)-5-(trifluoromethyl)pyrrolidin-2-one]
< 10 | Cc1cc(Cl)cc(-c2ncnc3cc(CN4C(=O)C5C(C4=O)C5(C)C)sc23)c1CC1CNCCO1 (centres unmarked) [Example 151, 3-((4-(5-chloro-3-methyl-2-(morpholin-2-ylmethyl)phenyl)thieno[3,2-d]pyrimidin-6-yl)methyl)-6,6-dimethyl-3-azabicyclo[3.1.0]hexane-2,4-dione]
< 10 | C[C@H]1CNC[C@H](C)N1Cc1c(Cl)cc(Cl)cc1-c1ncnc2cc(CN3C(=O)CCC3=O)sc12 [Example 92, 1-((4-(3,5-dichloro-2-(((2S,6S)-2,6-dimethylpiperazin-1-yl)methyl)phenyl)thieno[3,2-d]pyrimidin-6-yl)methyl)pyrrolidine-2,5-dione]
< 10 | Cc1cc(Cl)cc(-c2ncnc3cc(CN4C(=O)CCN(CCF)C4=O)sc23)c1CN1[C@@H](C)CNC[C@@H]1C [Example 258, 3-((4-(5-chloro-2-(((2S,6S)-2,6-dimethylpiperazin-1-yl)methyl)-3-methylphenyl)thieno[3,2-d]pyrimidin-6-yl)methyl)-1-(2-fluoroethyl)dihydropyrimidine-2,4(1H,3H)-dione]
< 10 | C[C@H]1CNC[C@H](C)N1Cc1c(Cl)cc(Cl)cc1-c1ccnc2cc(CN3C(=O)CCC3=O)sc12 [Example 48, 1-((7-(3,5-dichloro-2-(((2S,6S)-2,6-dimethylpiperazin-1-yl)methyl)phenyl)thieno[3,2-b]pyridin-2-yl)methyl)pyrrolidine-2,5-dione]
< 10 | Cc1cc(Cl)cc(-c2ncnc3cc(C(C)N4C(=O)C5C(C4=O)C5(C)C)sc23)c1C[C@@H]1CNCCO1 (stereo partly drawn) [Example 209, 3-(1-(4-(5-chloro-3-methyl-2-(((R)-morpholin-2-yl)methyl)phenyl)thieno[3,2-d]pyrimidin-6-yl)ethyl)-6,6-dimethyl-3-azabicyclo[3.1.0]hexane-2,4-dione]
